Test results reported in ChEMBL document CHEMBL1201862, “PubChem BioAssay data set” (2004).
Calls of active or inactive are those of the source. Rule as the data show it, for most assays here: actives have a measured IC50 and inactives only a lower limit.

Assays:
Caspase-3 [1] = biological target: T1, Caspase-3 (Homo sapiens, UniProt P42574); format: functional
T1 sequence (P42574 whole entry): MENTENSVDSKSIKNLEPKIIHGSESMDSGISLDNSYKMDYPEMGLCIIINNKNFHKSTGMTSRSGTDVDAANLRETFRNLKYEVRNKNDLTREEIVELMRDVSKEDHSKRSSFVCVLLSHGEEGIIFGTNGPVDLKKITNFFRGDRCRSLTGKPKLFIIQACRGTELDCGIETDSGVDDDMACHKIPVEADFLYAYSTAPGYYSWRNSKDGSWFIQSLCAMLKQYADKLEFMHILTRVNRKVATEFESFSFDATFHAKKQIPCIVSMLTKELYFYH

[2] = biological target: T2, Sentrin-specific protease 7 (Homo sapiens, UniProt Q9BQF6); assay: inhibition of human SENP7 cleavage activity – biochemical, luminescence, SAR follow-up (AID 504497); format: functional
T2 sequence (Q9BQF6 whole entry): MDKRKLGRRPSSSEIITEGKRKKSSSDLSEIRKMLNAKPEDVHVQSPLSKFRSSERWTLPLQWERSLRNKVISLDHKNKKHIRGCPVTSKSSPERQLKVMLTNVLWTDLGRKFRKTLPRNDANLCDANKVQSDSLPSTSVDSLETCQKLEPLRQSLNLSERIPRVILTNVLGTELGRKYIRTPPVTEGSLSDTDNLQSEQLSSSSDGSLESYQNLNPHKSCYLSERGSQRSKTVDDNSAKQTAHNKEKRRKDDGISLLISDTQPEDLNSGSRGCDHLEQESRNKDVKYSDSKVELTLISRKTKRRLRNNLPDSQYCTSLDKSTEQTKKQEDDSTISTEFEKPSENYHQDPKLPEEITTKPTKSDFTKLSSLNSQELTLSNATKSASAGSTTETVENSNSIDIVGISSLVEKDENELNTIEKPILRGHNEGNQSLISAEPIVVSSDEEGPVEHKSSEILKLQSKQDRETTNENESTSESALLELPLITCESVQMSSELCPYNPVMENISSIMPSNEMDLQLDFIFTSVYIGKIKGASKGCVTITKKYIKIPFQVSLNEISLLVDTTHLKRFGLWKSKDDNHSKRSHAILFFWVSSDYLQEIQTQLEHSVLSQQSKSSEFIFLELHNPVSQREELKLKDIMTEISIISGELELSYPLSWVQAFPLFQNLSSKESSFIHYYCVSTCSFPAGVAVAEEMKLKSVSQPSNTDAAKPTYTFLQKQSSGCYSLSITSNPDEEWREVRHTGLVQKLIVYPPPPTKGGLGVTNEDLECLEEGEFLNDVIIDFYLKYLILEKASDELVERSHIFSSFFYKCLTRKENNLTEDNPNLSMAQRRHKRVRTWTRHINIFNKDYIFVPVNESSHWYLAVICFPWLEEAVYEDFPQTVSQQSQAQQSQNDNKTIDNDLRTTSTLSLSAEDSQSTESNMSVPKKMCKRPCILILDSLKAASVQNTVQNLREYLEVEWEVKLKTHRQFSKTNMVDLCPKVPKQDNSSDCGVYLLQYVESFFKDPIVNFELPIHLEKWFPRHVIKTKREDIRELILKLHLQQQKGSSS

[3] = biological target: T3, Sentrin-specific protease 8 (Homo sapiens, UniProt Q96LD8); format: functional;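 also: luminescence read-out of SENP8 inhibition, dose-response confirmation following an ultra-high-throughput screen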
T3 sequence (Q96LD8 whole entry): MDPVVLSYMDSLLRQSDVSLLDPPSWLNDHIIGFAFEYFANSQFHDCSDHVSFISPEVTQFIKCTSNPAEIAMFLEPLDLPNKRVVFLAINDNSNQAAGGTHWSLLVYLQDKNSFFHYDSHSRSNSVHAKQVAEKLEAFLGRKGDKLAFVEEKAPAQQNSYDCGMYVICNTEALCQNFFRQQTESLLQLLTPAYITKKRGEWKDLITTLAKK

[4] = biological target: T2, Sentrin-specific protease 7; format: functional
[5] = biological target: T4, Sentrin-specific protease 6 (Homo sapiens, UniProt Q9GZR1); assay: SAR Analysis of small molecule inhibitors of Sentrin-specific protease 6 (SENP6) using a Luminescent assay. [Related pubchem assays (depositor defined):AID2582, AID2599]; format: functional
T4 sequence (Q9GZR1 whole entry): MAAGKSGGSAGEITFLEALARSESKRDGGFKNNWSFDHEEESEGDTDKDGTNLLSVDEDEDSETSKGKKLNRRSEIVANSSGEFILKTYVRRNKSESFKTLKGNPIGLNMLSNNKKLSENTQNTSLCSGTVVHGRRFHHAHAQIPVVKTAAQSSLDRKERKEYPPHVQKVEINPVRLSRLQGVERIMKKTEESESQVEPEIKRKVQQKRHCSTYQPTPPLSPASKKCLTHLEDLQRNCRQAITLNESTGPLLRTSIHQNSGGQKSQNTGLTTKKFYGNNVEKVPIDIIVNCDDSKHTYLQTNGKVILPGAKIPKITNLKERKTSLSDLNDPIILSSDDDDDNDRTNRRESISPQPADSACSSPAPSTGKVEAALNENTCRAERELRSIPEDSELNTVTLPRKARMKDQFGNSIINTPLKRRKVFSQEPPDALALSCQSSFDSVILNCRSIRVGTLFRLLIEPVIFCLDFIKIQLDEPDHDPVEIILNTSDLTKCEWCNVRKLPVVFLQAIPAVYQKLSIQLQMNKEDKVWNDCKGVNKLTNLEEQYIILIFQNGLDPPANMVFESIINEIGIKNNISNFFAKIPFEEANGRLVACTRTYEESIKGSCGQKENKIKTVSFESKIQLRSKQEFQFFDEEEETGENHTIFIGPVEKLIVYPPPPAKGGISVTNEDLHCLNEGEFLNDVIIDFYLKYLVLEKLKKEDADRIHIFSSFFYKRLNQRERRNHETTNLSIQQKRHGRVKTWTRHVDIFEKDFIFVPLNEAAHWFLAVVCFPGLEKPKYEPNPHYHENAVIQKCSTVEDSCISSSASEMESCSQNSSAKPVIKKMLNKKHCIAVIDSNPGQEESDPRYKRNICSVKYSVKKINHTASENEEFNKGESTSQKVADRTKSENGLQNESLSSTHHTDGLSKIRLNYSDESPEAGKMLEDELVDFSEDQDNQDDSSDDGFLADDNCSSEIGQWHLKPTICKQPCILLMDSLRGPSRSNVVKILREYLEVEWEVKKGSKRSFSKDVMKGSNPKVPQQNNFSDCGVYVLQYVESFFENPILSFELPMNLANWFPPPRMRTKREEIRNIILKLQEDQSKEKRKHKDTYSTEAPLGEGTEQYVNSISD

[6] = biological target: T4, Sentrin-specific protease 6; format: functional
[7] = biological target: T3, Sentrin-specific protease 8; assay: inhibition of human SENP8 cleavage activity – biochemical, luminescence, SAR follow-up (AID 504501); format: functional
Caspase-3 [8] = biological target: T1, Caspase-3; assay: SAR Analysis of small molecule inhibitors of Sentrin-specific proteases (SENPs) using a Caspase-3 Selectivity assay. [Related pubchem assays (depositor defined):AID2540, AID2599, AID434973, AID489001]; format: functional
Phospholipase A2 = Phospholipase A2 (Homo sapiens, UniProt P04054); format: functional;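 also: confirmatory dose-response counterscreen on phospholipase A2, testing hits that came from an ultra-high-throughput screen for ATG4B inhibitors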
Cysteine protease ATG4B = biological target: T5, Cysteine protease ATG4B (Homo sapiens, UniProt Q9Y4P1); format: functional;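 also: Fluorescence-based dose-response confirmation assay measuring inhibition of ATG4B activity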
T5 sequence (Q9Y4P1 whole entry): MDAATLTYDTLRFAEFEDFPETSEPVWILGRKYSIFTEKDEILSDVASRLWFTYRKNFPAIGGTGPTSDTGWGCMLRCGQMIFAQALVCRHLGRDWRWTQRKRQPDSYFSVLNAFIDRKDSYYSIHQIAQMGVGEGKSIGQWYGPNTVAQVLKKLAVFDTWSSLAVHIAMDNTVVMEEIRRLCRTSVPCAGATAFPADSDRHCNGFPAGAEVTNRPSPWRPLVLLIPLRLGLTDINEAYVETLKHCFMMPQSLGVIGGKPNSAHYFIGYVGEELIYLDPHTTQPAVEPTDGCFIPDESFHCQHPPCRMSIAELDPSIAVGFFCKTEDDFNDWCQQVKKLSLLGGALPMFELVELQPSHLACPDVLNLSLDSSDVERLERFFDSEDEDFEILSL

Caspase-3 [9] = biological target: T1, Caspase-3; assay: inhibition of recombinant caspase-3 activity – biochemical, luminescence, set 2, selectivity assay for SENP protease inhibitor project, SAR follow-up (AID 588599); format: functional
[10] = biological target: T3, Sentrin-specific protease 8; assay: inhibition of sentrin protease 8 – biochemical, luminescence, set 2, SAR follow-up (AID 588601); format: functional
CHO = CHO cell viability loss, potency – luminescence, cytotoxicity control for TLR9-MyD88 binding inhibitor project, dose response (AID 588339); format: functional, cell-based, hamster; conditions: Cricetulus griseus;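 also: CHO cells stably coexpressing TLR9 and MyD88 fusions from primary screen; compound exposure lasted 48 hours before viability readout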
Beta Lactamase = Beta Lactamase (Pseudomonas aeruginosa, UniProt Q932Y6); assay: BLA reporter interference, concentration series – BLA reporter cells, FRET fluorescence, artefact control for TLR9-MyD88 binding inhibitor project, dose response (AID 588341); format: cell-based;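 also: cell based assay in CHO-K1 cells stably expressing beta-lactamase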
Chain of Beta Lactamase (Q932Y6 whole entry): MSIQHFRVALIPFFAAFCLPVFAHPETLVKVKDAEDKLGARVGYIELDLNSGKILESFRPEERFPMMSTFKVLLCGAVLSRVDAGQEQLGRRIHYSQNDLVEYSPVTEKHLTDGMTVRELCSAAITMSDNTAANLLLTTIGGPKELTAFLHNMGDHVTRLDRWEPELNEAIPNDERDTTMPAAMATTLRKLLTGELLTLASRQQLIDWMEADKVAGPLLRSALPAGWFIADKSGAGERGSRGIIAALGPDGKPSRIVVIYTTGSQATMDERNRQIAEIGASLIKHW

Chain of Phospholipase A2 (P04054 whole entry): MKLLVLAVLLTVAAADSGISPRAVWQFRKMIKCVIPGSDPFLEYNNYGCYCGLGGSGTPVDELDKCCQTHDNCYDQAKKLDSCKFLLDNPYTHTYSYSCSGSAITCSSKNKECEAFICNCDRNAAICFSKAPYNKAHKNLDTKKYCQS

Structure (SMILES): O=C(Nc1ccc(Br)cc1)c1ccc2c(c1)OCO2
- IC50 (Caspase-3 [1]): 22.1 µM (active)
- IC50 [2]: 4.45 µM (active)
- IC50 [3]: > 100 µM (inactive)
- IC50 [4]: 3.75 µM (active)
- IC50 [5]: > 99 µM (inactive)
- IC50 [6]: > 100 µM (inactive)
- IC50 [7]: > 99 µM (inactive)
- IC50 (Caspase-3 [8]): 8.29 µM (active)

Structure (SMILES): CC(C)c1ccc(NC2CCCN(C(=O)c3[nH]nc4c3CCC4)C2)cc1 (configuration not stated)
- IC50 (Phospholipase A2): 5.99 µM (active)
- IC50 (Cysteine protease ATG4B): 11.8 µM (active)

Structure (SMILES): Cc1ccc(C(=O)Nc2nc3ccc(Cl)cc3s2)o1
- IC50 [5]: 25 µM (active)
- IC50 [7]: 3 µM (active)
- IC50 (Caspase-3 [9]): 2.53 µM (active)
- IC50 [10]: 1.65 µM (active)
- IC50 (Caspase-3 [8]): 11 µM (active)

Structure (SMILES): COc1ccc(/C=N/Nc2ccc([N+](=O)[O-])cc2)cc1O
- IC50 (CHO): 45.1 µM (inactive)
- IC50 (Beta Lactamase): 10.7 µM (inactive)
